Assay results taken from article PMC7944402, “Resin-acid derivatives bind to multiple sites on the voltage-sensor domain of the Shaker potassium channel” (The Journal of General Physiology, 2021).
Values joined by “and” are separate entries in the source; they are usually repeats but may differ in a detail not shown here. Equal entries are not always repeated.

Columns and labels:
Format in all cases: cell-based
[1] = target: T1, WT Shaker KV channel (ShH4IR) (Drosophila melanogaster, UniProt P08510, DEL6-46); test: Two-electrode voltage clamp of Shaker KV channels expressed in Xenopus laevis oocytes: WT
T1 construct: expressed in transfected cells; host or cells: Xenopus laevis oocytes (RNA injection)
Excerpt: The Shaker H4 channel (GenBank accession no. NM_167595.3; [Kamb et al., 1987]), with removed N-type inactivation due to a Δ6-46 deletion (ShH4IR, in Bluescript II KS(+) plasmid; [Hoshi et al., 1990]), is referred to as the WT Shaker KV channel. […] Therefore, we specifically refer to the two added arginines just outside S4 (M356R/A359R) as the 2R motif. Mutations were introduced with site-directed mutagenesis and verified with sequencing as described previously ([Börjesson et al., 2010]). RNA injection and oocyte handling were performed as before ([Börjesson et al., 2010]; [Ottosson et al., 2015]). All animal experiments were approved by the Linköping’s local Animal Care and Use Committee.
(§1) Electrophysiological experiments were made 1–6 d after RNA injection. K^+ currents were measured with the two-electrode voltage-clamp technique (GeneClamp 500B amplifier; Axon Instruments) as described previously ([Ottosson et al., 2015]; [Silverå Ejneby et al., 2018]). The amplifier’s leak compensation was used, and the currents were low-pass filtered at 5 kHz. The control solution contained (in mM) 88 NaCl, 1 KCl, 15 HEPES, 0.4 CaCl2, and 0.8 MgCl2, and pH was set with NaOH. All experiments were made at room temperature (20°C–23°C). The holding potential was set to −80 mV (or −100 mV if the mutant was not fully closed at −80 mV).
(§2) Stock solutions were stored at −20°C and diluted in control solution just before experiments. The test solution was added to the oocyte bath manually with a syringe. […] To make sure all Wu50 molecules were negatively charged, the pH of the control solution was set to 9.0 before the experiments.
(§3) The conductance, G(V), was calculated as G(V)=I/(V−VK), (1) where I is the steady-state current measured at the end of each test-voltage sweep (100 ms after onset; Clampfit 10.5; Molecular Devices), V is the absolute membrane voltage, and VK is the reversal potential for K^+ ions (set to −80 mV). The conductance was fitted with a Boltzmann equation (GraphPad Prism 5; GraphPad Software, Inc.) GK(V)=GMAX/{1+exp[(V½−V)/s]}, (2) where GMAX is the amplitude (maximal conductance) of the curve, V is the absolute membrane voltage, V1/2 is the midpoint, and s is the slope. The resin-acid–induced G(V) shift was calculated as V1/2 (compound) − V1/2 (control). The relative change in GMAX was calculated as GMAX (compound) / GMAX (control). The concentration dependence for the G(V) shifts was calculated as ΔV= ΔVMAX/(1 +EC50/c), (3) where ΔV is the voltage shift, ΔVMAX is the voltage shift at saturating concentration, c is the concentration of the tested compound, and EC50 is the concentration at which half-maximum response occurs.

[2] = target: T2, Shaker KV channel W454A (Drosophila melanogaster, UniProt P08510, DEL6-46/W454A); test: Two-electrode voltage clamp in Xenopus oocytes: W454A; details: 100 μM, pH 9.0, W454A
T2 construct: expressed in transfected cells; host or cells: Xenopus laevis oocytes (RNA injection)
Excerpt: (§4) The Shaker H4 channel (GenBank accession no. NM_167595.3; [Kamb et al., 1987]), with removed N-type inactivation due to a Δ6-46 deletion (ShH4IR, in Bluescript II KS(+) plasmid; [Hoshi et al., 1990]), is referred to as the WT Shaker KV channel. Addition of two positively charged arginines (M356R/A359R) at the extracellular top of the voltage sensor increases the effect of charged lipophilic compounds ([Ottosson et al., 2014], [2015], [2017]). […] However, for the resin-acid derivatives studied in the present investigation, R362 reduced the effect. Therefore, we specifically refer to the two added arginines just outside S4 (M356R/A359R) as the 2R motif. Mutations were introduced with site-directed mutagenesis and verified with sequencing as described previously ([Börjesson et al., 2010]). RNA injection and oocyte handling were performed as before ([Börjesson et al., 2010]; [Ottosson et al., 2015]). All animal experiments were approved by the Linköping’s local Animal Care and Use Committee.
(§5) Electrophysiological experiments were made 1–6 d after RNA injection. K^+ currents were measured with the two-electrode voltage-clamp technique (GeneClamp 500B amplifier; Axon Instruments) as described previously ([Ottosson et al., 2015]; [Silverå Ejneby et al., 2018]). […]
as §3, with “The conductance was fitted with a Boltzmann equation (GraphPad Prism 5; GraphPad Software, Inc.) GK(V)=GMAX/{1+exp[(V½−V)/s]}, (2) where GMAX is the amplitude (maximal conductance) of the curve, V is the absolute membrane voltage, V1/2 is the midpoint, and s is the slope.” left out

[3] = target: T3, Shaker KV channel R362Q/W454A (Drosophila melanogaster, UniProt P08510, DEL6-46/R362Q/W454A); test: Two-electrode voltage clamp in Xenopus oocytes: R362Q/W454A; details: 100 μM, pH 9.0, R362Q/W454A
T3 construct: expressed in transfected cells; host or cells: Xenopus laevis oocytes (RNA injection)
Excerpt: as §4, with “Mutations were introduced with site-directed mutagenesis and verified with sequencing as described previously ([Börjesson et al., 2010]). RNA injection and oocyte handling were performed as before ([Börjesson et al., 2010]; [Ottosson et al., 2015]). All animal experiments were approved by the Linköping’s local Animal Care and Use Committee.” left out
as §5
(§6) The conductance, G(V), was calculated as G(V)=I/(V−VK), (1) where I is the steady-state current measured at the end of each test-voltage sweep (100 ms after onset; Clampfit 10.5; Molecular Devices), V is the absolute membrane voltage, and VK is the reversal potential for K^+ ions (set to −80 mV). […] The resin-acid–induced G(V) shift was calculated as V1/2 (compound) − V1/2 (control). The relative change in GMAX was calculated as GMAX (compound) / GMAX (control). […]

[4] = target: T4, Shaker KV channel R362Q/R365Q (Drosophila melanogaster, UniProt P08510, DEL6-46/R362Q/R365Q); test: Two-electrode voltage clamp in Xenopus oocytes: R362Q/R365Q; details: 100 μM, pH 9.0, R362Q/R365Q
T4 construct: expressed in transfected cells; host or cells: Xenopus laevis oocytes (RNA injection)
Excerpt: as §4, §5
as §3, with “The conductance was fitted with a Boltzmann equation (GraphPad Prism 5; GraphPad Software, Inc.) GK(V)=GMAX/{1+exp[(V½−V)/s]}, (2) where GMAX is the amplitude (maximal conductance) of the curve, V is the absolute membrane voltage, V1/2 is the midpoint, and s is the slope.” left out

[5] = target: T5, Shaker KV channel R362Q/R365Q/W454A (Drosophila melanogaster, UniProt P08510, DEL6-46/R362Q/R365Q/W454A); test: Two-electrode voltage clamp in Xenopus oocytes: R362Q/R365Q/W454A; details: 100 μM, pH 9.0, R362Q/R365Q/W454A
T5 construct: expressed in transfected cells; host or cells: Xenopus laevis oocytes (RNA injection)
Excerpt: as §4, with “Mutations were introduced with site-directed mutagenesis and verified with sequencing as described previously ([Börjesson et al., 2010]). RNA injection and oocyte handling were performed as before ([Börjesson et al., 2010]; [Ottosson et al., 2015]). All animal experiments were approved by the Linköping’s local Animal Care and Use Committee.” left out
as §5, §6

[6] = target: T6, Shaker KV channel R362Q (Drosophila melanogaster, UniProt P08510, DEL6-46/R362Q); test: Two-electrode voltage clamp in Xenopus oocytes: R362Q; details: 100 μM, pH 9.0, R362Q
T6 construct: expressed in transfected cells; host or cells: Xenopus laevis oocytes (RNA injection)
Excerpt: as §4, §5
as §3, with “The conductance was fitted with a Boltzmann equation (GraphPad Prism 5; GraphPad Software, Inc.) GK(V)=GMAX/{1+exp[(V½−V)/s]}, (2) where GMAX is the amplitude (maximal conductance) of the curve, V is the absolute membrane voltage, V1/2 is the midpoint, and s is the slope.” left out

[7] = target: T7, Shaker KV channel M356R/A359R/W454A (Drosophila melanogaster, UniProt P08510, A359R/DEL6-46/M356R/W454A); test: Two-electrode voltage clamp in Xenopus oocytes: 2R motif/W454A
T7 construct: expressed in transfected cells; host or cells: Xenopus laevis oocytes (RNA injection)
Excerpt: as §4, §1
as §2, with “the experiments. This pH change had only small effects on channel kinetics and the G(V) relation.” for “the experiments.”
as §3, with “The conductance was fitted with a Boltzmann equation (GraphPad Prism 5; GraphPad Software, Inc.) GK(V)=GMAX/{1+exp[(V½−V)/s]}, (2) where GMAX is the amplitude (maximal conductance) of the curve, V is the absolute membrane voltage, V1/2 is the midpoint, and s is the slope.” left out

[8] = target: T8, Shaker KV channel R362Q/R365Q/W454A/F280I (Drosophila melanogaster, UniProt P08510, DEL6-46/F280I/R362Q/R365Q/W454A); test: Two-electrode voltage clamp in Xenopus oocytes: R362Q/R365Q/W454A/F280I; details: 100 μM, pH 9.0, R362Q/R365Q/W454A/F280I
T8 construct: expressed in transfected cells; host or cells: Xenopus laevis oocytes (RNA injection)
Excerpt: as §4, with “Mutations were introduced with site-directed mutagenesis and verified with sequencing as described previously ([Börjesson et al., 2010]). RNA injection and oocyte handling were performed as before ([Börjesson et al., 2010]; [Ottosson et al., 2015]). All animal experiments were approved by the Linköping’s local Animal Care and Use Committee.” left out
as §5, §6

[9] = 100 μM, pH 9.0, M356R/A359R/W454A

T6 sequence (P08510 other isoform, or with tags, fused parts or gaps DEL6-46/R362Q): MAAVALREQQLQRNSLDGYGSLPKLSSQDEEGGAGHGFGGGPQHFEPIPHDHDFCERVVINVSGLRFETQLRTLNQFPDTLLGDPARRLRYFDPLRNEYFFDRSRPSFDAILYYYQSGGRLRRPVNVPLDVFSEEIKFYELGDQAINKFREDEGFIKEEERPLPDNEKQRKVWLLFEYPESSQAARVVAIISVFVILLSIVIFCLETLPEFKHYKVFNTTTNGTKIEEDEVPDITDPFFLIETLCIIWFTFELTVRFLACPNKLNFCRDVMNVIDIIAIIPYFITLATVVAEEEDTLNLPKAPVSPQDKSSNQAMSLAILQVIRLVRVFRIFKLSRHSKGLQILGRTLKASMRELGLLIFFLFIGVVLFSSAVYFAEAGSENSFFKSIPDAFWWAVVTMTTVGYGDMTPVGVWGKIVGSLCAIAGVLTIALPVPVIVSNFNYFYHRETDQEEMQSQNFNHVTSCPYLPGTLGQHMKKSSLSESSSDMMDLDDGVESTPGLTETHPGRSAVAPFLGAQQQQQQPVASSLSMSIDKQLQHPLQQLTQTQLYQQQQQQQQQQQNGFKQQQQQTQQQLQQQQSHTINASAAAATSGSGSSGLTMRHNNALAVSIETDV
T7 sequence (P08510 with tags, fused parts or gaps DEL6-46/M356R/A359R/W454A): as the sequence (P08510 other isoform, or with tags, fused parts or gaps DEL6-46/R362Q) above, with M315R, A318R, Q321R, W413A counted along it
T4 sequence (P08510 other isoform, or with tags, fused parts or gaps DEL6-46/R362Q/R365Q): as the sequence (P08510 other isoform, or with tags, fused parts or gaps DEL6-46/R362Q) above, with R324Q counted along it
T1 sequence (P08510 other isoform, or with tags, fused parts or gaps DEL6-46): as the sequence (P08510 other isoform, or with tags, fused parts or gaps DEL6-46/R362Q) above, with Q321R counted along it
T3 sequence (P08510 with tags, fused parts or gaps DEL6-46/R362Q/W454A): as the sequence (P08510 other isoform, or with tags, fused parts or gaps DEL6-46/R362Q) above, with W413A counted along it
T5 sequence (P08510 with tags, fused parts or gaps DEL6-46/R362Q/R365Q/W454A): as the sequence (P08510 other isoform, or with tags, fused parts or gaps DEL6-46/R362Q) above, with R324Q, W413A counted along it
T2 sequence (P08510 other isoform, or with tags, fused parts or gaps DEL6-46/W454A): as the sequence (P08510 other isoform, or with tags, fused parts or gaps DEL6-46/R362Q) above, with Q321R, W413A counted along it
T8 sequence (P08510 other isoform, or with tags, fused parts or gaps DEL6-46/F280I/R362Q/R365Q/W454A): as the sequence (P08510 other isoform, or with tags, fused parts or gaps DEL6-46/R362Q) above, with F239I, R324Q, W413A counted along it

C[C@@]1(C(=O)O)CCC[C@]2(C)c3cc(Cl)c(Cl)c(Cl)c3CC[C@@H]12 [Wu50]
ΔVG(V) (G(V) shift) ([1]; 100 μM, pH 9.0, WT): −25.5 ± 1.4 mV and -25.5 mV
GMAX (rel.) ([1]; 100 μM, pH 9.0, WT, GMAX (compound)/GMAX (control)): 1.36 rel.
EC50 ([1]; WT, pH 9.0, concentration-response (Eq. 3), read-out: EC50 of the G(V) shift (apparent affinity)): 29.1 ± 3.5 µM
GMAX (rel.) [2]: 0.56 rel.
ΔVG(V) (G(V) shift) [2]: −8.1 ± 0.4 mV and -8.1 mV
GMAX (rel.) [3]: 1.28 rel.
ΔVG(V) (G(V) shift) [3]: −41.0 ± 4.4 mV and -41.0 mV
GMAX (rel.) [4]: 0.55 rel.
ΔVG(V) (G(V) shift) [4]: −25.5 ± 4.6 mV and -25.5 mV
GMAX (rel.) [5]: 0.57 rel.
ΔVG(V) (G(V) shift) [5]: −24.7 ± 3.0 mV and -24.7 mV
GMAX (rel.) [6]: 1.25 rel.
ΔVG(V) (G(V) shift) [6]: −49.6 ± 1.2 mV and -49.6 mV
EC50 [7]: 27.9 ± 9.2 µM
GMAX (rel.) [7, 9]: 1.28 rel.
ΔVG(V) (G(V) shift) [7, 9]: -39.6 mV
ΔVMAX (maximum G(V) shift) ([7]; 2R motif/W454A, pH 9.0, concentration-response): −62.3 ± 6.5 mV
GMAX (rel.) [8]: 0.05 rel.
